# Data: patent US6664309B2, “Antimicrobial hot melt adhesive” (priority 2000, dated 2003)
# How the values were obtained:
# [1] = cited from earlier work
# Gram Positive Bacteria = assay: Bacterial growth testing on inoculated agar plates, nonwoven with adhesive; assay type: cell-based, gram-positive cocci similar to a Staphylococcus type; conditions: nonwoven with 3 gsm adhesive on inoculated agar plate, 35±2° C., 24 hours, observed for areas of non-growth
# Experimental: A control mix, a mix with 0.5% triclosan, and a mix with 0.75% triclosan, were made of each product at 300° F. Each of the adhesives were applied at 300° F. to a standard 15.3 grams/m^2 (gsm) nonwoven substrate on the CT225 coater using a Nordson Control Weave applicator at 0.5 inch wide. The adhesive add-on level was 3 gsm. The pattern was fiberized. The nonwoven/adhesive was combined to release paper for easy removal for testing.
# Ready-made petri plates of agar were used for this experiment. Inoculates were prepared using a barium sulfate standard for a turbidity of 150,000,000 bacteria/ml. The plates were inoculated using a sterile swab by streaking bacteria in three directions (to ensure complete coverage). A midline was drawn on each plate with a marker. To one side a piece of nonwoven (0.5×1.0″) was set on the inoculated plate. A sample of nonwoven with adhesive was positioned on the other half. The plates were incubated at 35±2° C. for 24 hours and observed for areas of non-growth. Photographs were taken using a digital camera. The following table outlines the samples tested and the results for each bacteria type.
# Because triclosan is a broad-spectrum bacteriostat, it was thought that it would work on both the gram positive and the gram-negative strains. […]
structure (smiles),measurement,setting,value
"Oc1cc(Cl)ccc1Oc1ccc(Cl)cc1Cl [triclosan, 2,4,4′-trichloro-2′-hydroxy-diphenyl-ether]",Solubility in water,[1],practically insoluble in water
same,"Bacterial growth, Gram Positive Bacteria",Gram Positive Bacteria,effective at inhibiting the growth
